In US6818215B2, “Antibodies to senescent cell-derived inhibiters of DNA synthesis” (priority 1991, dated 2004):

Legend:
Hepatocellular (Hep G2) = assay: GST-SDI-1 fusion protein, thymidine incorporation; type: cell-based, human
Method: (§1) As indicated above, SDI-1 has the capacity to suppress the proliferation of tumor cells. […] In the experiment, 5×10^3 cells were plated overnight at 37° C. (only for adherent cells) and then incubated with the SDI fusion protein. After 48 hours at 37° C., cells were pulsed with thymidine for 24 hours and then harvested. The results of this experiment are shown in Table 8; the thymidine incorporation by untreated cells was expressed as 100%. all determinations were made in quadruplicate.

Glial (U-251) = assay: GST-SDI-1 fusion protein, thymidine incorporation; type: cell-based, human
Method: as §1

Breast (T-47 D) = assay: GST-SDI-1 fusion protein, thymidine incorporation; type: cell-based, human
Method: as §1

Burkitt Lymphoma (Daudi) = assay: GST-SDI-1 fusion protein, thymidine incorporation; type: cell-based, human; details: 30 μg/ml
Method: as §1

[1] = test system: Lung adenocarcinoma (A-549); assay: GST-SDI-1 fusion protein, thymidine incorporation; type: cell-based, human
Method: as §1

Fibroblasts (L-929) = assay: GST-SDI-1 fusion protein, thymidine incorporation; type: cell-based, Murine; details: 50 μg/ml
Method: as §1

human cdc2 promoter = assay: CAT reporter transcription assay, cdc2-CAT; type: cell-based
Method: (§2) The effect of the human SDI-1 on transcription driven by two E2F-responsive promoters was determined. Proliferating A31 cells were transfected with an SDI-1 expression vector in which the SDI-1 cDNA was driven by the strong constitutive cytomegalovirus early promoter (CMV) together with a reporter vector in which the chloramphenicol acetyltransferase (CAT) gene was driven by either the hamster dihydrofolate reductase (DHFR) promoter or the human cdc2 promoter (cdc2-CAT). A31 cells are Balb/c murine 3T3 fibroblasts whose origin and growth properties have been described (Lu, K. et al., Molec. Cell. Biol. 9:3411-3417 (1989); Dimri, G. P et al., J. Biol. Chem. 269:16180-16186 (1994), herein incorporated by reference). Cells were transfected with 2 μg of expression vectors, reporters vectors (for transactivation) and the CMV-β-gal identification/normalization vector using Lipofectamine (Gibco-BRL), as described by Dimri, G. P et al. (J. Biol. Chem. 269:16180-16186 (1994), herein incorporated by reference), The vector backbone was added to the mixture as needed to equalize the amount of transfected DNA. Seventy-two hours later, the cells were lysed and assayed for chloramphenicol acetyl transferase (CAT) and β-galactosidase activity. Both DHFR and cdc2 were expressed by proliferating cells, largely due to E2F-mediated transcription that is dependent on E2F binding sites in the 5′ regulatory regions of these genes (Slansky, J. E. et al., Molec. Cell. Biol. 13:1610-1618 (1993); Dalton, S., EMBO J. 11:1797-1804 (1992)).
The SDI-1 expression vector, CMV-SDI-1, but not the control vector, suppressed CAT activity driven by either the DHFR or cdc2 promoter (Table 16). CMV-SDI-1 was maximally inhibitory at above 2 μg of DNA under the assay conditions used. CAT activity in Table 16 is reported in counts per minute, normalized to the β-galactosidase activity. At this concentration, CMV-SDI-1 inhibited the DHFR promoter, which contains two strong E2F binding sites (Slansky, J. E. et al., Molec. Cell. Biol. 13:1610-1618 (1993)), somewhat more strongly than the cdc2 promoter, which contains a single E2F binding site (Dalton, S., EMBO J. 11:1797-1804 (1992)) (50-70% inhibition vs 40-50% inhibition). This difference in sensitivity is consistent with the finding that the DHFR promoter is somewhat more sensitive than the cdc2 promoter to stimulation by E2F1, a component of E2F (Dimri, G. P et al., J. Biol. Chem. 269:16180-16186 (1994)). At the concentrations used here, CMV-SDI-1 inhibited DHFR-CAT and cdc2-CAT expression to approximately the same extent that it inhibited DNA replication.

SUSMI = assay: Transient transfection of SDI-1, inhibition of DNA synthesis; type: cell-based
Excerpt: (§3) This provides further evidence that SDI-1 behaves like the inhibitor previously detected in senescent cells.

[2] = test system: SV40 transformed cell line GM639; assay: as above; type: cell-based
Excerpt: as §3

[3] = test system: SV40 early promoter with mutant E2F binding sites (SV/E2Fm); assay: CAT reporter transcription assay, SV/E2Fm-CAT; type: cell-based; details: A31 cells
Method: as §2, with “Seventy-two hours later, the cells were lysed and assayed for chloramphenicol acetyl transferase (CAT) and β-galactosidase activity. Both DHFR and cdc2 were expressed by proliferating cells, largely due to E2F-mediated transcription that is dependent on E2F binding sites in the 5′ regulatory regions of these genes (Slansky, J. E. et al., Molec. Cell. Biol. 13:1610-1618 (1993); Dalton, S., EMBO J. 11:1797-1804 (1992)).” left out
To more critically ascertain whether the inhibition of transcription by SDI-1 was E2F-dependent, three E2F binding sites were inserted into the SV40 early promoter and the effect of CMV-SDI-1 on CAT activity driven by this modified promoter (SV/E2F) was determined. […]

SDI-1: senescent cell derived inhibitor of DNA synthesis, 164 amino acid protein, SEQ ID NO:2
Relative Cell (% of Control) (Hepatocellular (Hep G2); 30 μg/ml): 21 ± 3 % of Control
Relative Cell (% of Control) (Hepatocellular (Hep G2); 50 μg/ml): 12 ± 2 % of Control
Relative Cell (% of Control) (Glial (U-251); 30 μg/ml): 66 ± 4 % of Control
Relative Cell (% of Control) (Glial (U-251); 50 μg/ml): 35 ± 2 % of Control
Relative Cell (% of Control) (Breast (T-47 D); 30 μg/ml): 2 ± 0 % of Control
Relative Cell (% of Control) (Breast (T-47 D); 50 μg/ml): 2 ± 0 % of Control
Relative Cell (% of Control) (Burkitt Lymphoma (Daudi)): 3 ± 0 % of Control
Relative Cell (% of Control) ([1]; 30 μg/ml): 40 ± 1 % of Control
Relative Cell (% of Control) ([1]; 50 μg/ml): 25 ± 3 % of Control
Relative Cell (% of Control) (Fibroblasts (L-929)): 4 ± 1 % of Control
Transcription (Normalized) % Activity (human cdc2 promoter; A31 cells (Table 17)): 52%
Transcription (Normalized) % Inhibition (human cdc2 promoter; A31 cells (Table 17)): 48%
% Activity (human cdc2 promoter; SDI-1 1.0 μg): 50%
% Inhibition (human cdc2 promoter; SDI-1 1.0 μg): 50%
Normalized CAT Activity (human cdc2 promoter; SDI-1 1.0 μg): 1664 counts per minute
% Activity (human cdc2 promoter; SDI-1 2.0 μg): 60%
% Inhibition (human cdc2 promoter; SDI-1 2.0 μg): 40%
Normalized CAT Activity (human cdc2 promoter; SDI-1 2.0 μg): 2000 counts per minute
% Activity (human cdc2 promoter; SDI-1 4.0 μg): 61%
% Inhibition (human cdc2 promoter; SDI-1 4.0 μg): 39%
Normalized CAT Activity (human cdc2 promoter; SDI-1 4.0 μg): 2008 counts per minute
inhibition (DNA synthesis) (SUSMI): 40%
inhibition (DNA synthesis) [2]: < 20%
Transcription (Normalized) % Activity [3]: 93%
Transcription (Normalized) % Inhibition [3]: 7%
